Source: PubChem BioAssay AID2060343 (Molecular Pharmacology Branch, DTP, NCI, 2025)

System: 138582-337-R-J1-PDC spheroids with HUVEC/MSC, viability
Test: Anticancer human tumor 138582-337-R-J1-PDC patient-derived Merkel cell tumor cell line growth inhibition [IpAb]
Conditions: for IC50: curve of first compound; for viability, T/C: stronger effect = lower value
Description: Combinatorial screen of targeted agents with ipatasertib and abemaciclib in multi-cell type tumor spheroids
A high-throughput screen of multi-cell type tumor spheroids was designed to identify active combinations of targeted small molecules and ipatasertib or abemaciclib. Complex spheroids include a stromal component modeled by human endothelial cells (HUVEC) and fibroblasts modeled by human mesenchymal stem cells (MSCs). The concentration ranges selected for each drug and investigational agent were based upon clinically achievable concentrations if the clinical Cmax of the agent was known.
Compounds. The drugs and investigational agents: ipatasertib (NSC767898), abemaciclib(NSC768073), selumetinib (NSC741078), trametinib (758246), adavosertib (NSC754352), everolimus (NSC733504), sapanisertib (NSC764658), vemurafenib (NSC761431), venetoclax (NSC766270), copanlisib (NSC809693), apelisib (NSC765974), palbociblib (NSC758247), vemurafenib (NSC761431), dabrafenib (NSC764134), ravoxertinib (NSC781343), BMS-387032 (NSC767048), sotorasib (NSC818433), talazoparib (NSC767125) and afursertib (NSC778305), were obtained from the National Cancer Institute (NCI) Developmental Therapeutics Program Chemical Repository. The FDA-approved anticancer drug set is available from the NCI Developmental Therapeutics Program. […] The stock solutions were prepared in dimethyl sulfoxide (DMSO, Sigma-Aldrich, St. Louis, MO, cat. D2650) at 800-fold the tested concentration and stored at -70 degrees C prior to their use. All drugs and investigational agents were tested over a range starting from a high concentration at or near the clinical Cmax and decreasing in half-log increments. If the clinical Cmax for an agent had not been determined, the highest concentration tested was 10 microM.
NCI60 Cell Culture. NCI60 cell lines were obtained from the NCI Developmental Therapeutics Program Tumor Repository. For each lot of cells, the Repository performed Applied Biosystems AmpFLSTR Identifiler testing with PCR amplification to confirm consistency with the published Identifier STR profile for each cell line. Cells were kept in continuous culture for no more than 20 passages. The optimal seeding densities for each of the cell lines at each time point assessed were determined prior to performing the concentration response studies. Briefly, the NCI60 human tumor lines were grown as monolayers in RPMI 1640 medium supplemented with 10% FBS and 2 mmol/L L-glutamine.
An additional 9 lines were from the NCI60 cell line panel including MDA-MB-231 breast carcinoma, MDA-MB-468 breast carcinoma, MCF7 breast carcinoma, Hs578T breast carcinoma, MALME-3M melanoma, SK-MEL-2 melanoma, SK-OV-3 ovarian carcinoma, DU-145 prostate carcinoma, PC-3 prostate carcinoma, all cell lines along with major genetic alterations are listed on Table 2. Pooled donor human umbilical vein endothelial cells (HUVEC, Lonza, cat. CC-2519) and human mesenchymal stem cells (hMSC, Lonza, cat. PT-2501) were purchased from Lonza (Walkersville, MD).
PDMR cell lines were grown in complete medium (DC medium): Dulbecco's modified Eagle's medium (DMEM)/F12 supplemented with 5% fetal bovine serum (FBS), 2 mM L-glutamine, 100 U/mL penicillin and 100 µg/ml streptomycin, 0.4 µg/ml hydrocortisone, 10 ng/ml epidermal growth factor (EGF) recombinant human protein, 24 µg/mL adenine, and 0.1 mg/mL primocin. During culture from frozen stock vials, PDMR cells were cultured in the same medium containing 10 µM Y-27632 (see Table 3). The PDCs were cultured in complete DMEM/F12 media without 10 microM Y-27632 dihydrochloride for at least two passages prior to the screen. The pooled donor HUVEC and hMSC were cultured in endothelial cell growth medium 2 (PromoCell, Heidelberg, Germany, cat. C-22011) and mesenchymal stem cell growth medium 2 (PromoCell, cat. C-28009), respectively. For all experiments, HUVEC and hMSC were used at passages </=5.
[…]

[1] = second compound 0.1 µM, first compound 0.0316 µM
[2] = second compound 0.1 µM, first compound 0.1 µM
[3] = second compound 0.1 µM, first compound 0.316 µM
[4] = second compound 0.1 µM, first compound 1 µM
[5] = second compound 0.1 µM, first compound 3.16 µM
[6] = second compound 0.1 µM, first compound 10 µM
[7] = second compound 0.316 µM, first compound 0.0316 µM
[8] = second compound 0.316 µM, first compound 0.1 µM
[9] = second compound 0.316 µM, first compound 0.316 µM
[10] = second compound 0.316 µM, first compound 1 µM
[11] = second compound 0.316 µM, first compound 3.16 µM
[12] = second compound 0.316 µM, first compound 10 µM
[13] = second compound 1 µM, first compound 0.0316 µM
[14] = second compound 1 µM, first compound 0.1 µM
[15] = second compound 1 µM, first compound 0.316 µM
[16] = second compound 1 µM, first compound 1 µM
[17] = second compound 1 µM, first compound 3.16 µM
[18] = second compound 1 µM, first compound 10 µM
[19] = second compound 3.16 µM, first compound 0.0316 µM
[20] = second compound 3.16 µM, first compound 0.1 µM
[21] = second compound 3.16 µM, first compound 0.316 µM
[22] = second compound 3.16 µM, first compound 1 µM
[23] = second compound 3.16 µM, first compound 3.16 µM
[24] = second compound 3.16 µM, first compound 10 µM
[25] = second compound 10 µM, first compound 0.0316 µM
[26] = second compound 10 µM, first compound 0.1 µM
[27] = second compound 10 µM, first compound 0.316 µM
[28] = second compound 10 µM, first compound 1 µM
[29] = second compound 10 µM, first compound 3.16 µM
[30] = second compound 10 µM, first compound 10 µM
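Also: spheroids exposed to compounds for seven days.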
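For viability, T/C in this document: 100% = DMSO vehicle control viability.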

| Structure (SMILES) | IC50 (second compound 0.1 µM) | IC50 (second compound 0.316 µM) | IC50 (second compound 1 µM) | IC50 (second compound 3.16 µM) | IC50 (second compound 10 µM) | viability, T/C [1] | viability, T/C [2] | viability, T/C [3] | viability, T/C [4] | viability, T/C [5] | viability, T/C [6] | viability, T/C [7] | viability, T/C [8] | viability, T/C [9] | viability, T/C [13] | viability, T/C [14] | viability, T/C [19] | viability, T/C [20] | viability, T/C [25] | viability, T/C [26] | other results |
| --- | --- | --- | --- | --- | --- | --- | --- | --- | --- | --- | --- | --- | --- | --- | --- | --- | --- | --- | --- | --- | --- |
| C=CCn1c(=O)c2cnc(Nc3ccc(N4CCN(C)CC4)cc3)nc2n1-c1cccc(C(C)(C)O)n1 + CC(C)NCC(C(=O)N1CCN(c2ncnc3c2C(C)CC3O)CC1)c1ccc(Cl)cc1 | > 10 µM | > 10 µM | > 10 µM | < 0.0316 µM | < 0.0316 µM | 96.8% | 95.6% | 78% | 99.6% | 99.1% | 134% | 85.5% | 73.6% | 74.7% | 66.7% | 73.5% | 58.1% | 53.6% | 54.6% | 41.5% | viability, T/C [10]: 71.4%; viability, T/C [11]: 94.2%; viability, T/C [12]: 117%; viability, T/C [15]: 54.5%; viability, T/C [16]: 63.6%; viability, T/C [17]: 83.4%; viability, T/C [18]: 89.1%; viability, T/C [21]: 38.9%; viability, T/C [22]: 46.6%; viability, T/C [23]: 74.8%; viability, T/C [24]: 73.8%; viability, T/C [27]: 33.9%; viability, T/C [28]: 42%; viability, T/C [29]: 60.1%; viability, T/C [30]: 55.5% |
| CC(C)n1nc(-c2ccc3oc(N)nc3c2)c2c(N)ncnc21 + CC(C)NCC(C(=O)N1CCN(c2ncnc3c2C(C)CC3O)CC1)c1ccc(Cl)cc1 | 0.0224 µM | 0.00757 µM | 0.00197 µM | 0.000362 µM | < 0.000316 µM | 43.8% | 31.9% | – | – | – | – | 37% | 26.8% | – | 27.5% | 22% | 19.6% | 17.5% | 14.4% | 12.3% | viability, T/C (second compound 0.1 µM, first compound 0.000316 µM): 96.3%; viability, T/C (second compound 0.1 µM, first compound 0.001 µM): 89.2%; viability, T/C (second compound 0.1 µM, first compound 0.00316 µM): 70%; viability, T/C (second compound 0.1 µM, first compound 0.01 µM): 64.1%; viability, T/C (second compound 0.316 µM, first compound 0.000316 µM): 67.8%; viability, T/C (second compound 0.316 µM, first compound 0.001 µM): 66%; viability, T/C (second compound 0.316 µM, first compound 0.00316 µM): 61.8%; viability, T/C (second compound 0.316 µM, first compound 0.01 µM): 44.1%; viability, T/C (second compound 1 µM, first compound 0.000316 µM): 63.1%; viability, T/C (second compound 1 µM, first compound 0.001 µM): 54.1%; viability, T/C (second compound 1 µM, first compound 0.00316 µM): 47.5%; viability, T/C (second compound 1 µM, first compound 0.01 µM): 36.2%; viability, T/C (second compound 3.16 µM, first compound 0.000316 µM): 50%; viability, T/C (second compound 3.16 µM, first compound 0.001 µM): 47.3%; viability, T/C (second compound 3.16 µM, first compound 0.00316 µM): 36%; viability, T/C (second compound 3.16 µM, first compound 0.01 µM): 27.3%; viability, T/C (second compound 10 µM, first compound 0.000316 µM): 40.5%; viability, T/C (second compound 10 µM, first compound 0.001 µM): 35.9%; viability, T/C (second compound 10 µM, first compound 0.00316 µM): 31.6%; viability, T/C (second compound 10 µM, first compound 0.01 µM): 21.8% |
| CC1(C)CCC(CN2CCN(c3ccc(C(=O)NS(=O)(=O)c4ccc(NCC5CCOCC5)c([N+](=O)[O-])c4)c(Oc4cnc5[nH]ccc5c4)c3)CC2)=C(c2ccc(Cl)cc2)C1 + CC(C)NCC(C(=O)N1CCN(c2ncnc3c2C(C)CC3O)CC1)c1ccc(Cl)cc1 | > 10 µM | > 10 µM | > 10 µM | < 0.0316 µM | < 0.0316 µM | 83.6% | 73.6% | 78.5% | 75.1% | 74.5% | 76.6% | 73% | 69.8% | 67% | 65.2% | 63.5% | 51.2% | 50.7% | 43.7% | 41.7% | viability, T/C [10]: 71.4%; viability, T/C [11]: 63.3%; viability, T/C [12]: 71.2%; viability, T/C [15]: 63.8%; viability, T/C [16]: 60.9%; viability, T/C [17]: 60.2%; viability, T/C [18]: 63.8%; viability, T/C [21]: 46.9%; viability, T/C [22]: 50.3%; viability, T/C [23]: 49.6%; viability, T/C [24]: 32.3%; viability, T/C [27]: 41.3%; viability, T/C [28]: 38.3%; viability, T/C [29]: 47.1%; viability, T/C [30]: 11% |
| CCCS(=O)(=O)Nc1ccc(F)c(C(=O)c2c[nH]c3ncc(-c4ccc(Cl)cc4)cc23)c1F + CC(C)NCC(C(=O)N1CCN(c2ncnc3c2C(C)CC3O)CC1)c1ccc(Cl)cc1 | > 10 µM | > 10 µM | 4.18 µM | < 0.0316 µM | < 0.0316 µM | 87.4% | 86.3% | 88.9% | 89.7% | 102% | 68.2% | 73.2% | 77.2% | 66% | 67.3% | 61.2% | 47.2% | 48.5% | 41.8% | 47.8% | viability, T/C [10]: 68%; viability, T/C [11]: 71.7%; viability, T/C [12]: 51.6%; viability, T/C [15]: 61.3%; viability, T/C [16]: 54.5%; viability, T/C [17]: 58%; viability, T/C [18]: 36%; viability, T/C [21]: 47.1%; viability, T/C [22]: 45%; viability, T/C [23]: 42.5%; viability, T/C [24]: 21.3%; viability, T/C [27]: 43.7%; viability, T/C [28]: 35.7%; viability, T/C [29]: 31.1%; viability, T/C [30]: 1.88% |
